Assay [1] has as its target recombinant human FLAP protein (Homo sapiens (Human), UniProt P20292). As to the kind of experiment: FLAP binding assay (Scintillation Proximity Assay, displacement of [125I]L-691,831). Conditions: read-out: FLAP SPA IC50. The procedure, abridged: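 Scintillation proximity displacement of an iodinated (125I) FLAP inhibitor by test compounds, using 100,000×g membrane fraction from lysed cells. Final beads 200 μg/well and protein 5 μg/well; plates shaken 2 h before reading.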

Assay [2] deals with synthesis of LTB4 in human whole blood. As to the kind of experiment: Human whole blood LTB4 production inhibition assay. The class given is cell-based. The conditions noted are these: calcimycin stimulated, read-out: hWB LTB4 IC50. The procedure, abridged:
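LTB4 levels in plasma were measured by antibody-based HTRF after heparinized human whole blood, pretreated with compound (15 min, 37° C), was challenged with 20 μM calcimycin for 30 min at 37° C.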

Among the data in patent publication US8575201B2 (Boehringer Ingelheim International GmbH, priority 2010, dated 2013) are IC50 values, retold here.

For orientation: IC50 means the point on the concentration scale where inhibition reaches its midpoint.

Chain of recombinant human FLAP protein (P20292 whole entry): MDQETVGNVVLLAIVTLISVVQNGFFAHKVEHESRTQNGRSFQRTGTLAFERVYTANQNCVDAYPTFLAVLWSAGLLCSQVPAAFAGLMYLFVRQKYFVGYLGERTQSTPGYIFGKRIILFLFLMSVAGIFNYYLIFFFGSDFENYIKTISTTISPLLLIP

As for `CC(C)NC(=O)Cn1cc(-c2nc(C3(c4ccc(-c5cnc(N)nc5)nc4)CCC3)no2)cn1` [Example 157, 2-[4-(3-{1-[6-(2-amino-pyrimidin-5-yl)-pyridin-3-yl]-cyclobutyl}-[1,2,4]oxadiazol-5-yl)-pyrazol-1-yl]-N-isopropyl-acetamide], the values for the IC50 in assay [1] and in assay [2] were 79 nM and 560 nM, respectively.
On to `CC(C)(O)Cn1cc(-c2nc(C3(c4ccc(-c5ccc(N)nc5)nc4)CCC3)no2)cn1` [Example 153, 1-(4-{3-[1-(6′-amino-[2,3′]bipyridinyl-5-yl)-cyclobutyl]-[1,2,4]oxadiazol-5-yl}-pyrazol-1-yl)-2-methyl-propan-2-ol], for which the IC50 was 34 nM in assay [1] and 190 nM in assay [2].
As to `Cn1cc(-c2nc(C3(c4ccc(-c5cnc(N)nc5)cn4)CCC3)no2)cn1` [Example 134, 5-(6-{1-[5-(1-methyl-1H-pyrazol-4-yl)-1,2,4-oxadiazol-3-yl]cyclobutyl}pyridin-3-yl)pyrimidin-2-amine], the IC50 in assay [1] was 81 nM; in assay [2], 790 nM.
In the case of `CC(C)n1cc(-c2nc(C3(c4ccc(-c5cnc(N)nc5)nc4)CCC3)no2)cn1` [Example 64, 5-[5-(1-{5-[1-(propan-2-yl)-1H-pyrazol-4-yl]-1,2,4-oxadiazol-3-yl}cyclobutyl)pyridin-2-yl]pyrimidin-2-amine], the results for the IC50 in assay [1] and in assay [2] were 7.2 nM and 170 nM, respectively.
For `Nc1cnc(-c2ccc(C3(c4noc(-c5cnn(C6COC6)c5)n4)CCC3)cn2)cn1` [Example 145], the IC50 in assay [1] was 8.3 nM; in assay [2], 29 nM.
Take `Cn1cc(-c2nc(C3(c4ccc(-c5cnc(N)nc5)nc4)CCC3)no2)cn1` [Example 102, 5-(5-{1-[5-(1-methyl-1H-pyrazol-4-yl)-1,2,4-oxadiazol-3-yl]cyclobutyl}pyridin-2-yl)pyrimidin-2-amine]: the IC50 was determined as 13 nM in assay [1] and 270 nM in assay [2].
For the molecule `NC(=O)Cn1cc(-c2nc(C3(c4ccc(-c5cnc(N)nc5)nc4)CCC3)no2)cn1` [Example 70, 2-[4-(3-{1-[6-(2-aminopyrimidin-5-yl)pyridin-3-yl]cyclobutyl}-1,2,4-oxadiazol-5-yl)-1H-pyrazol-1-yl]acetamide], the concentration for half-maximal inhibition (IC50) in assay [1] was 150 nM; in assay [2] it was 2100 nM.
As for `CN(C(=O)Cn1cc(-c2nc(C3(c4ccc(-c5cnc(N)nc5)nc4)CCC3)no2)cn1)C(C)(C)C` [Example 143, 2-[4-(3-{1-[6-(2-aminopyrimidin-5-yl)pyridin-3-yl]cyclobutyl}-1,2,4-oxadiazol-5-yl)-1H-pyrazol-1-yl]-N-tert-butyl-N-methylacetamide], the figures for the IC50 in assay [1] and in assay [2] were 14 nM and 260 nM, respectively.
As for `CC(C)(O)c1ccc(-c2nc(C3(c4ccc(-c5cnc(N)nc5)nc4)CCC3)no2)cn1` [Example 82, 2-[5-(3-{1-[6-(2-aminopyrimidin-5-yl)pyridin-3-yl]cyclobutyl}-1,2,4-oxadiazol-5-yl)pyridin-2-yl]propan-2-ol], the IC50 in assay [1] came to 17 nM; in assay [2], 480 nM.
As for `Cn1cnnc1-c1nc(C2(c3ccc(-c4cnc(N)nc4)nc3)CCC2)no1` [Example 37, 5-(5-{1-[5-(4-methyl-4H-1,2,4-triazol-3-yl)-1,2,4-oxadiazol-3-yl]cyclobutyl}pyridin-2-yl)pyrimidin-2-amine], the results for the IC50 in assay [1] and in assay [2] were 110 nM and 790 nM, respectively.
The matching figures for `CS(=O)(=O)c1cccc(-c2nc(C3(c4ccc(-c5cnc(N)nc5)nc4)CCC3)no2)c1` [Example 11, 5-[5-(1-{5-[3-(methylsulfonyl)phenyl]-1,2,4-oxadiazol-3-yl}cyclobutyl)pyridin-2-yl]pyrimidin-2-amine]: 78 nM and 2200 nM.
`CS(=O)(=O)C1CCN(c2ccc(-c3nc(C4(c5ccc(-c6cnc(N)nc6)nc5)CCC4)no3)cn2)C1` (centres unmarked) [Example 52, 5-{5-[1-(5-{6-[3-(methylsulfonyl)pyrrolidin-1-yl]pyridin-3-yl}-1,2,4-oxadiazol-3-yl)cyclobutyl]pyridin-2-yl}pyrimidin-2-amine]: the results for the IC50 in assay [1] and in assay [2] were 2.6 nM and 180 nM, respectively.
For `Nc1ncc(-c2ccc(C3(c4noc(-c5ccc(N6CCNCC6)nc5)n4)CCC3)cn2)cn1` [Example 3, 5-[5-(1-{5-[6-(piperazin-1-yl)pyridin-3-yl]-1,2,4-oxadiazol-3-yl}cyclobutyl)pyridin-2-yl]pyrimidin-2-amine], in that order: 2.7 nM and 150 nM.
For `Nc1ncc(-c2ccc(C3(c4noc(-c5cccnc5N5CCOCC5)n4)CCC3)cn2)cn1` [Example 128, 5-[5-(1-{5-[2-(morpholin-4-yl)pyridin-3-yl]-1,2,4-oxadiazol-3-yl}cyclobutyl)pyridin-2-yl]pyrimidin-2-amine], the IC50 in assay [1] came out at 66 nM; in assay [2] it was 2700 nM.
With `Nc1ncc(-c2ccc(C3(c4noc(-c5ccnnc5)n4)CCC3)cn2)cn1` [Example 104, 5-(5-{1-[5-(pyridazin-4-yl)-1,2,4-oxadiazol-3-yl]cyclobutyl}pyridin-2-yl)pyrimidin-2-amine], the figures for the IC50 in assay [1] and in assay [2] were 110 nM and 2100 nM, respectively.
Consider `Nc1ncc(-c2ccc(C3(c4noc(-c5cnccc5O)n4)CCC3)cn2)cn1` [Example 107, 3-(3-{1-[6-(2-aminopyrimidin-5-yl)pyridin-3-yl]cyclobutyl}-1,2,4-oxadiazol-5-yl)pyridin-4-ol], for which the IC50 in assay [1] came out at 190 nM; in assay [2] it was 4000 nM.
For `Nc1ccc(-c2ccc(C3(c4noc(-c5cnn(C6COC6)c5)n4)CCC3)cn2)cn1` [Example 152, 5-{1-[5-(1-oxetan-3-yl-1H-pyrazol-4-yl)-[1,2,4]oxadiazol-3-yl]-cyclobutyl}-[2,3′]bipyridinyl-6′-ylamine], in that order: 13 nM and 100 nM.
The matching figures for `Nc1ncc(-c2ccc(C3(c4noc(-c5ccnc(O)c5)n4)CCC3)cn2)cn1` [Example 91, 4-(3-{1-[6-(2-aminopyrimidin-5-yl)pyridin-3-yl]cyclobutyl}-1,2,4-oxadiazol-5-yl)pyridin-2-ol]: 24 nM and 330 nM.
For `Nc1ncc(-c2ccc(C3(c4noc(-c5ccc(N6CCCC6)nc5)n4)CCC3)cn2)cn1` [Example 112, 5-[5-(1-{5-[6-(pyrrolidin-1-yl)pyridin-3-yl]-1,2,4-oxadiazol-3-yl}cyclobutyl)pyridin-2-yl]pyrimidin-2-amine], in that order: 3.3 nM and 570 nM.
In the case of `Nc1ncc(-c2ccc(C3(c4noc(-c5ccc(N6CCC[C@@H]6CO)nc5)n4)CCC3)cn2)cn1` [Example 45, {(2R)-1-[5-(3-{1-[6-(2-aminopyrimidin-5-yl)pyridin-3-yl]cyclobutyl}-1,2,4-oxadiazol-5-yl)pyridin-2-yl]pyrrolidin-2-yl}methanol], the results for the IC50 in assay [1] and in assay [2] were 3.1 nM and 750 nM, respectively.
Take `COC(=O)c1ccc(-c2nc(C3(c4ccc(-c5cnc(N)nc5)nc4)CCC3)no2)cn1` [Example 81, methyl 5-(3-{1-[6-(2-aminopyrimidin-5-yl)pyridin-3-yl]cyclobutyl}-1,2,4-oxadiazol-5-yl)pyridine-2-carboxylate]: the IC50 was 25 nM in assay [1] and 790 nM in assay [2].
In the case of `Nc1ncc(-c2ccc(C3(c4noc(-c5cccnc5)n4)CCOCC3)cn2)cn1` [Example 72, 5-(5-{4-[5-(pyridin-3-yl)-1,2,4-oxadiazol-3-yl]tetrahydro-2H-pyran-4-yl}pyridin-2-yl)pyrimidin-2-amine], the IC50 in assay [1] stood at 610 nM; in assay [2] it was 2300 nM.
Consider `CC(C)(O)CNc1ccc(-c2nc(C3(c4ccc(-c5cnc(N)nc5)nc4)CCC3)no2)cn1` [Example 12, 1-{[5-(3-{1-[6-(2-aminopyrimidin-5-yl)pyridin-3-yl]cyclobutyl}-1,2,4-oxadiazol-5-yl)pyridin-2-yl]amino}-2-methylpropan-2-ol], for which the IC50 in assay [1] is 2.1 nM; in assay [2] it was 140 nM.
As for `CN(CC1CCCO1)C(=O)Cn1cc(-c2nc(C3(c4ccc(-c5cnc(N)nc5)nc4)CCC3)no2)cn1` (centres unmarked) [Example 159, 2-[4-(3-{1-[6-(2-amino-pyrimidin-5-yl)-pyridin-3-yl]-cyclobutyl}-[1,2,4]oxadiazol-5-yl)-pyrazol-1-yl]-N-methyl-N-(tetrahydro-furan-2-ylmethyl)-acetamide], the results for the IC50 in assay [1] and in assay [2] were 83 nM and 510 nM, respectively.
For the molecule `CNc1ccc(-c2nc(C3(c4ccc(-c5cnc(N)nc5)nc4)CCC3)no2)cn1` [Example 113, 5-[5-(1-{5-[6-(methylamino)pyridin-3-yl]-1,2,4-oxadiazol-3-yl}cyclobutyl)pyridin-2-yl]pyrimidin-2-amine], the IC50 in assay [1] was determined as 2.4 nM; in assay [2], 100 nM.
As to `Nc1ncc(-c2ccc(C3(c4noc(-c5ccncc5)n4)CCC3)cn2)cn1` [Example 87, 5-(5-{1-[5-(pyridin-4-yl)-1,2,4-oxadiazol-3-yl]cyclobutyl}pyridin-2-yl)pyrimidin-2-amine], the IC50 in assay [1] stood at 55 nM; in assay [2], 1000 nM.
As for `CS(=O)(=O)Cn1cc(-c2nc(C3(c4ccc(-c5cnc(N)nc5)nc4)CCC3)no2)cn1` [Example 71, 5-{5-[1-(5-{1-[(methylsulfonyl)methyl]-1H-pyrazol-4-yl}-1,2,4-oxadiazol-3-yl)cyclobutyl]pyridin-2-yl}pyrimidin-2-amine], the IC50 in assay [1] is 58 nM; in assay [2] it was 390 nM.
Take `Nc1ncc(-c2ccc(C3(c4noc(-c5cnn(C6COC6)c5)n4)CCC3)cn2)cn1` [Example 55, 5-[5-(1-{5-[1-(oxetan-3-yl)-1H-pyrazol-4-yl]-1,2,4-oxadiazol-3-yl}-cyclobutyl)pyridin-2-yl]pyrimidin-2-amine]: the IC50 in assay [1] amounted to 13 nM; in assay [2], 52 nM.
